{
  "source": "ChEMBL document CHEMBL3044935",
  "about": "“Synthesis and in vitro microbiological evaluation of novel 2,4-diaryl-3-azabicyclo[3.3.1]nonan-9,5-spiro-1,2,4-triazolidine-3-thiones” (2012)",
  "assay_type_in_all_cases": "functional",
  "key": {"[1]": {"tested_on": "Klebsiella pneumoniae", "assay": "Antimicrobial activity against Klebsiella pneumoniae after 24 hr by two-fold serial dilution method"}, "[2]": {"tested_on": "Streptococcus", "assay": "Antimicrobial activity against beta-hemolytic Streptococcus after 24 hr by two-fold serial dilution method"}, "[3]": {"tested_on": "Staphylococcus aureus", "assay": "Antimicrobial activity against Staphylococcus aureus after 24 hr by two-fold serial dilution method"}, "[4]": {"tested_on": "Vibrio cholerae", "assay": "Antimicrobial activity against Vibrio cholerae after 24 hr by two-fold serial dilution method"}, "[5]": {"tested_on": "Nannizzia gypsea", "assay": "Antimicrobial activity against Microsporum gypseum after 72 to 96 hr by two-fold serial dilution method"}, "[6]": {"tested_on": "Salmonella typhi", "assay": "Antimicrobial activity against Salmonella enterica subsp. enterica serovar Typhi after 24 hr by two-fold serial dilution method"}, "[7]": {"tested_on": "Mucor", "assay": "Antimicrobial activity against Mucor after 72 to 96 hr by two-fold serial dilution method"}, "[8]": {"tested_on": "Escherichia coli", "assay": "Antimicrobial activity against Escherichia coli after 24 hr by two-fold serial dilution method"}, "[9]": {"tested_on": "Aspergillus flavus", "assay": "Antimicrobial activity against Aspergillus flavus after 72 to 96 hr by two-fold serial dilution method"}, "[10]": {"tested_on": "Shigella flexneri", "assay": "Antimicrobial activity against Shigella flexneri after 24 hr by two-fold serial dilution method"}, "[11]": {"tested_on": "Rhizopus", "assay": "Antimicrobial activity against Rhizopus after 72 to 96 hr by two-fold serial dilution method"}},
  "data": [
    {"smiles": "O=[N+]([O-])c1ccc(C2NC(c3ccc([N+](=O)[O-])cc3)C3CCCC2C32NNC(=S)N2)cc1", "note": "(stereo not drawn)", "values": [
      {"measurement": "MIC", "setting": "[1]", "result": 50, "unit": "µg/mL"},
      {"measurement": "MIC", "setting": "[2]", "result": 12.5, "unit": "µg/mL"},
      {"measurement": "MIC", "setting": "[3]", "result": 12.5, "unit": "µg/mL"},
      {"measurement": "MIC", "setting": "[4]", "result": 25, "unit": "µg/mL"},
      {"measurement": "MIC", "setting": "[5]", "result": 12.5, "unit": "µg/mL"},
      {"measurement": "MIC", "setting": "[6]", "result": 100, "unit": "µg/mL"},
      {"measurement": "MIC", "setting": "[7]", "result": 25, "unit": "µg/mL"},
      {"measurement": "MIC", "setting": "[8]", "result": 100, "unit": "µg/mL"},
      {"measurement": "MIC", "setting": "[9]", "result": 25, "unit": "µg/mL"},
      {"measurement": "MIC", "setting": "[10]", "result": 50, "unit": "µg/mL"},
      {"measurement": "MIC", "setting": "[11]", "result": 12.5, "unit": "µg/mL"}
    ]},
    {"smiles": "Fc1ccc(C2NC(c3ccc(F)cc3)C3CCCC2C32NNC(=S)N2)cc1", "note": "(stereo not drawn)", "values": [
      {"measurement": "MIC", "setting": "[1]", "result": 6.25, "unit": "µg/mL"},
      {"measurement": "MIC", "setting": "[2]", "result": 12.5, "unit": "µg/mL"},
      {"measurement": "MIC", "setting": "[3]", "result": 6.25, "unit": "µg/mL"},
      {"measurement": "MIC", "setting": "[4]", "result": 12.5, "unit": "µg/mL"},
      {"measurement": "MIC", "setting": "[5]", "result": 6.25, "unit": "µg/mL"},
      {"measurement": "MIC", "setting": "[6]", "result": 100, "unit": "µg/mL"},
      {"measurement": "MIC", "setting": "[7]", "result": 100, "unit": "µg/mL"},
      {"measurement": "MIC", "setting": "[8]", "result": 100, "unit": "µg/mL"},
      {"measurement": "MIC", "setting": "[9]", "result": 6.25, "unit": "µg/mL"},
      {"measurement": "MIC", "setting": "[10]", "result": 50, "unit": "µg/mL"},
      {"measurement": "MIC", "setting": "[11]", "result": 12.5, "unit": "µg/mL"}
    ]},
    {"smiles": "COc1ccc(C2NC(c3ccc(OC)cc3)C3CCCC2C32NNC(=S)N2)cc1", "note": "(stereo not drawn)", "values": [
      {"measurement": "MIC", "setting": "[1]", "result": 12.5, "unit": "µg/mL"},
      {"measurement": "MIC", "setting": "[2]", "result": 100, "unit": "µg/mL"},
      {"measurement": "MIC", "setting": "[3]", "result": 100, "unit": "µg/mL"},
      {"measurement": "MIC", "setting": "[4]", "result": 50, "unit": "µg/mL"},
      {"measurement": "MIC", "setting": "[5]", "result": 50, "unit": "µg/mL"},
      {"measurement": "MIC", "setting": "[6]", "result": 200, "unit": "µg/mL"},
      {"measurement": "MIC", "setting": "[7]", "result": 50, "unit": "µg/mL"},
      {"measurement": "MIC", "setting": "[8]", "result": 100, "unit": "µg/mL"},
      {"measurement": "MIC", "setting": "[9]", "result": 100, "unit": "µg/mL"},
      {"measurement": "MIC", "setting": "[10]", "result": 25, "unit": "µg/mL"},
      {"measurement": "MIC", "setting": "[11]", "result": 25, "unit": "µg/mL"}
    ]},
    {"smiles": "S=C1NNC2(N1)C1CCCC2C(c2ccc(Cl)cc2)NC1c1ccc(Cl)cc1", "note": "(stereo not drawn)", "values": [
      {"measurement": "MIC", "setting": "[1]", "result": 100, "unit": "µg/mL"},
      {"measurement": "MIC", "setting": "[2]", "result": 50, "unit": "µg/mL"},
      {"measurement": "MIC", "setting": "[3]", "result": 12.5, "unit": "µg/mL"},
      {"measurement": "MIC", "setting": "[4]", "result": 25, "unit": "µg/mL"},
      {"measurement": "MIC", "setting": "[5]", "result": 12.5, "unit": "µg/mL"},
      {"measurement": "MIC", "setting": "[6]", "result": 12.5, "unit": "µg/mL"},
      {"measurement": "MIC", "setting": "[7]", "result": 12.5, "unit": "µg/mL"},
      {"measurement": "MIC", "setting": "[8]", "result": 12.5, "unit": "µg/mL"},
      {"measurement": "MIC", "setting": "[9]", "result": 12.5, "unit": "µg/mL"},
      {"measurement": "MIC", "setting": "[10]", "result": 100, "unit": "µg/mL"},
      {"measurement": "MIC", "setting": "[11]", "result": 25, "unit": "µg/mL"}
    ]},
    {"smiles": "S=C1NNC2(N1)C1CCCC2C(c2ccc(Br)cc2)NC1c1ccc(Br)cc1", "note": "(stereo not drawn)", "values": [
      {"measurement": "MIC", "setting": "[1]", "result": 100, "unit": "µg/mL"},
      {"measurement": "MIC", "setting": "[2]", "result": 6.25, "unit": "µg/mL"},
      {"measurement": "MIC", "setting": "[3]", "result": 12.5, "unit": "µg/mL"},
      {"measurement": "MIC", "setting": "[4]", "result": 25, "unit": "µg/mL"},
      {"measurement": "MIC", "setting": "[5]", "result": 25, "unit": "µg/mL"},
      {"measurement": "MIC", "setting": "[6]", "result": 12.5, "unit": "µg/mL"},
      {"measurement": "MIC", "setting": "[7]", "result": 12.5, "unit": "µg/mL"},
      {"measurement": "MIC", "setting": "[8]", "result": 100, "unit": "µg/mL"},
      {"measurement": "MIC", "setting": "[9]", "result": 6.25, "unit": "µg/mL"},
      {"measurement": "MIC", "setting": "[10]", "result": 50, "unit": "µg/mL"},
      {"measurement": "MIC", "setting": "[11]", "result": 12.5, "unit": "µg/mL"}
    ]},
    {"smiles": "OC(Cn1cncn1)(Cn1cncn1)c1ccc(F)cc1F", "note": "[FLUCONAZOLE]", "values": [
      {"measurement": "MIC", "setting": "[5]", "result": 12.5, "unit": "µg/mL"},
      {"measurement": "MIC", "setting": "[7]", "result": 12.5, "unit": "µg/mL"},
      {"measurement": "MIC", "setting": "[9]", "result": 25, "unit": "µg/mL"},
      {"measurement": "MIC", "setting": "[11]", "result": 25, "unit": "µg/mL"}
    ]},
    {"smiles": "S=C1NNC2(N1)C1CCCC2C(c2ccccc2)NC1c1ccccc1", "note": "(stereo not drawn)", "values": [
      {"measurement": "MIC", "setting": "[1]", "result": 100, "unit": "µg/mL"},
      {"measurement": "MIC", "setting": "[2]", "result": 100, "unit": "µg/mL"},
      {"measurement": "MIC", "setting": "[3]", "result": 100, "unit": "µg/mL"},
      {"measurement": "MIC", "setting": "[4]", "result": 50, "unit": "µg/mL"},
      {"measurement": "MIC", "setting": "[5]", "result": 200, "unit": "µg/mL"},
      {"measurement": "MIC", "setting": "[6]", "result": 50, "unit": "µg/mL"},
      {"measurement": "MIC", "setting": "[7]", "result": 200, "unit": "µg/mL"},
      {"measurement": "MIC", "setting": "[8]", "result": 200, "unit": "µg/mL"},
      {"measurement": "MIC", "setting": "[9]", "result": 100, "unit": "µg/mL"},
      {"measurement": "MIC", "setting": "[10]", "result": 100, "unit": "µg/mL"},
      {"measurement": "MIC", "setting": "[11]", "result": 200, "unit": "µg/mL"}
    ]},
    {"smiles": "Cc1ccc(C2NC(c3ccc(C)cc3)C3CCCC2C32NNC(=S)N2)cc1", "note": "(stereo not drawn)", "values": [
      {"measurement": "MIC", "setting": "[1]", "result": 200, "unit": "µg/mL"},
      {"measurement": "MIC", "setting": "[2]", "result": 50, "unit": "µg/mL"},
      {"measurement": "MIC", "setting": "[3]", "result": 50, "unit": "µg/mL"},
      {"measurement": "MIC", "setting": "[4]", "result": 50, "unit": "µg/mL"},
      {"measurement": "MIC", "setting": "[5]", "result": 50, "unit": "µg/mL"},
      {"measurement": "MIC", "setting": "[6]", "result": 50, "unit": "µg/mL"},
      {"measurement": "MIC", "setting": "[7]", "result": 100, "unit": "µg/mL"},
      {"measurement": "MIC", "setting": "[8]", "result": 200, "unit": "µg/mL"},
      {"measurement": "MIC", "setting": "[9]", "result": 200, "unit": "µg/mL"},
      {"measurement": "MIC", "setting": "[10]", "result": 200, "unit": "µg/mL"},
      {"measurement": "MIC", "setting": "[11]", "result": 50, "unit": "µg/mL"}
    ]},
    {"smiles": "O=C(O)c1cn(C2CC2)c2cc(N3CCNCC3)c(F)cc2c1=O", "note": "[CIPROFLOXACIN]", "values": [
      {"measurement": "MIC", "setting": "[1]", "result": 12.5, "unit": "µg/mL"},
      {"measurement": "MIC", "setting": "[2]", "result": 12.5, "unit": "µg/mL"},
      {"measurement": "MIC", "setting": "[3]", "result": 12.5, "unit": "µg/mL"},
      {"measurement": "MIC", "setting": "[4]", "result": 25, "unit": "µg/mL"},
      {"measurement": "MIC", "setting": "[6]", "result": 25, "unit": "µg/mL"},
      {"measurement": "MIC", "setting": "[8]", "result": 25, "unit": "µg/mL"},
      {"measurement": "MIC", "setting": "[10]", "result": 25, "unit": "µg/mL"}
    ]}
  ]
}
